Data: ChEMBL document CHEMBL1149225, “Synthesis and evaluation of substituted 4-alkoxy-2-aminopyridines as novel neuropeptide Y1 receptor antagonists” (Bioorg Med Chem Lett, 2004)
pIC50: −log10 of the molar value.

Legend:
CHO = experiment: Inhibitory concentration against 1 nM NPY induced [Ca2+] increase in CHO/dhFr- cells expressing recombinant human Y1 receptor; assay type: functional, cell-based; details: Cricetulus griseus
[1] = molecular target: T1, Neuropeptide Y receptor type 1 (Homo sapiens, UniProt P25929); experiment: Binding affinity against human recombinant NPY Y1 receptor in CHO/dhFr- cell membranes using [125I]PYY
T1 sequence (P25929 whole entry): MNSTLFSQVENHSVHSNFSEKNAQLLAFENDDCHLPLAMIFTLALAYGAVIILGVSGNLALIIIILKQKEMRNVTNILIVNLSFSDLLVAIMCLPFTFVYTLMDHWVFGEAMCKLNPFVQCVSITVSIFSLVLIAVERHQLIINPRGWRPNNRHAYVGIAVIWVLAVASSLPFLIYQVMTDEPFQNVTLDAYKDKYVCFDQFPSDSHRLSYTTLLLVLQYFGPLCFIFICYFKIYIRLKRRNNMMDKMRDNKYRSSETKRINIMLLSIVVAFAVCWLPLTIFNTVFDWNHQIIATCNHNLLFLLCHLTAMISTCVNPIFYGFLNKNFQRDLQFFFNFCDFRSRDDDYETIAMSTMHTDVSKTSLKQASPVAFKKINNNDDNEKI

pIC50 [1] | Structure (SMILES) | pIC50 (CHO)
8.33 | CC/C=C\CCOc1cc(CCc2nc(C)c(CC)s2)nc(NCc2cc(Cl)cc(NC(=O)OC(C)C)c2)c1 | 7.19
7.96 | CCc1sc(CCc2cc(OC3CCCC3)cc(NCc3cc(Cl)cc(NC(=O)OC(C)C)c3)n2)nc1C | 
7.92 | CCc1sc(CCc2cc(OC(C)C)cc(NCc3cc(Cl)cc(NC(=O)OC(C)C)c3)n2)nc1C | 
7.77 | CCCOc1cc(CCc2nc(C)c(CC)s2)nc(NCc2cc(Cl)cc(NC(=O)OC(C)C)c2)c1 | 
7.46 | CCCCCOc1cc(CCc2nc(C)c(CC)s2)nc(NCc2cc(Cl)cc(NC(=O)OC(C)C)c2)c1 | 
7.14 | CCCCCCCOc1cc(CCc2nc(C)c(CC)s2)nc(NCc2cc(Cl)cc(NC(=O)OC(C)C)c2)c1 | 
7.48 | CCOc1cc(CCc2nc(C)c(CC)s2)nc(NCc2cc(Cl)cc(NC(=O)OC(C)C)c2)c1 | 
6.63 | CCc1sc(CCc2cc(OC)cc(NCc3cc(Cl)cc(NC(=O)OC(C)C)c3)n2)nc1C | 

Continued, compound first:

Structure (SMILES) | pIC50 [1] | pIC50 (CHO)
CCc1sc(CCc2cc(OC(C)COC)cc(NCc3cc(Cl)cc(NC(=O)OC(C)C)c3)n2)nc1C (stereo not drawn) | 8.08 | 7.23
CCc1sc(CCc2cc(OCC(C)(C)C)cc(NCc3cc(Cl)cc(NC(=O)OC(C)C)c3)n2)nc1C | 7.26 | 
CCc1sc(CCc2cc(OCc3ccccc3)cc(NCc3cc(Cl)cc(NC(=O)OC(C)C)c3)n2)nc1C | 6.63 | 
CCc1sc(CCc2cc(OCCc3ccccc3)cc(NCc3cc(Cl)cc(NC(=O)OC(C)C)c3)n2)nc1C | 7.52 | 
CCCCOc1cc(CCc2nc(C)c(CC)s2)nc(NCc2cc(Cl)cc(NC(=O)OC(C)C)c2)c1 | 7.80 | 
CCc1sc(CCc2cc(OCCCc3ccccc3)cc(NCc3cc(Cl)cc(NC(=O)OC(C)C)c3)n2)nc1C | 7.70 | 
CCc1sc(CCc2cc(OC3CCCCC3)cc(NCc3cc(Cl)cc(NC(=O)OC(C)C)c3)n2)nc1C | 7.54 | 
CCc1sc(CCc2cc(N3CCOCC3)cc(NCc3cc(Cl)cc(NC(=O)OC(C)C)c3)n2)nc1C | 8.85 | 8.54
CCc1sc(CCc2cc(OC(CC)CC)cc(NCc3cc(Cl)cc(NC(=O)OC(C)C)c3)n2)nc1C | 8.26 | 7.48
CCc1sc(CCc2cc(OCCCc3cccnc3)cc(NCc3cc(Cl)cc(NC(=O)OC(C)C)c3)n2)nc1C | 8.19 | 7.34
CCCCCCOc1cc(CCc2nc(C)c(CC)s2)nc(NCc2cc(Cl)cc(NC(=O)OC(C)C)c2)c1 | 7.20 | 
CCc1sc(CCc2cc(OC3CCOCC3)cc(NCc3cc(Cl)cc(NC(=O)OC(C)C)c3)n2)nc1C | 8.36 | 7.38
CCc1sc(CCc2cc(OC3CCC3)cc(NCc3cc(Cl)cc(NC(=O)OC(C)C)c3)n2)nc1C | 7.96 | 
CCc1sc(CCc2cc(OCC3(C)CC3)cc(NCc3cc(Cl)cc(NC(=O)OC(C)C)c3)n2)nc1C | 7.77 | 
